The values below are quoted from earlier work in patent publication US20080131532A1, “Fast asleep” (priority 2006, published 2008).

In data set [1] the test system is subjects with Alzheimer's disease. To be noted: eight weeks, 50 subjects.
The conditions of data set [2]: in vivo.
For the next data set, the system named is rat brain. To be noted: following administration.
Data set [3] deals with patients with multi-infarct dementia or senile dementia and senile and pre-senile simple memory disorders.
The subject of data set [4] is schizophrenic outpatients with initial insomnia. To be noted: 3-12 mg/night, 15 days.
In another data set the test system is healthy male volunteers. To be noted: 10-mg dose for 28 days, 1 hour before sleep time.
The test system of data set [5] is primary or secondary sleep disorders. To be noted: meta-analysis.
A further data set relates to women. To be noted: 100 mg pill at 08.00 h.
The test system of the next data set is jet lag. To be noted: two doses, different administration times.
The next data set deals with women with asthma. To be noted: 3 mg for 4 weeks, between groups.
Data set [6] has as its system long-term users of benzodiazepine. To be noted: 2 milligrams daily controlled release.
Data set [7] concerns travelers crossing five or more time zones.
The next data set relates to healthy elderly subjects. To be noted: 1 mg nightly for 4 weeks.
In the next data set the test system is patients with tinnitus. To be noted: 3 mg per day for 4 weeks; weeks 0 to 4 and weeks 0 to 8.
In data set [8] the test system is children with idiopathic chronic sleep-onset insomnia. To be noted: 5 mg at 7 pm, 4-week treatment.
The test system of data set [9] is children with neurologic disorders. To be noted: 5 milligrams at bedtime, six children.
The mark [10] stands for this setting: sleep-disturbed rats, 09:00 to 15:00.

With `CCOC(=O)c1ncn2c1CN(C)C(=O)c1cc(F)ccc1-2` [Flumazenil, flumazenil], the “effect on changes in delta activity induced by kava-kava extract and flunitrazepam” value in the data set with sleep-disturbed rats (sleep-disturbed rats) was “no significant effect”.
In the case of `C/C=C1\[C@H]2C=C(C)C[C@]1(N)c1ccc(=O)[nH]c1C2` [Huperzine A], the “patients with significant improvement in memory, cognitive and behavioral functions” value in data set [1] is recorded as 58%. Moreover, in data set [2], the “time to reach peak blood level” value is recorded as “approximately 80 minutes”. The “duration of AChE inhibitory action” value (compared with tacrine, donepezil, and rivastigmine) is given as “longer duration”. In addition, where the note is “in vivo”, the “penetration through the blood-brain barrier” value was “better penetration”; the “toxicity in animal and clinical safety tests” value was “no unexpected toxicity”. Also, for the setting “in vivo, po”, the oral bioavailability result is on record as “higher”. The memory deficits result (phase IV clinical trials in China, elderly with benign senescent forgetfulness, Alzheimer disease, vascular dementia) is “significantly improved”. Besides, in the data set on rat brain, the “acetylcholine levels in the rat brain” value is reported as “increase”, the dopamine levels entry is on record as “increases” and the norepinephrine levels entry is recorded as “increases”. In addition, in data set [3] (in vivo), the Dizziness entry is on record as “experienced by a few”. In data set [3] (injectable form versus saline control), the “Wechsler Memory Scale” value is “significant positive effects”.
With `CC1=C[C@H]2Cc3[nH]c(=O)ccc3[C@]3(C1)NCCC[C@H]23` [Huperzine B], the “acetylcholinesterase inhibition (in words)” value in the data set on acetylcholinesterase is “much less potent”.
For `COc1ccc2[nH]cc(CCNC(C)=O)c2c1` [Melatonin, N-[2-(5-Methoxy-1H-indol-3-yl)ethyl]acetamide], in data set [4], the daytime functioning result is recorded as “improved”, the duration of sleep entry is reported as “increased”, the freshness on awakening result is recorded as “heightened” and the mood result is listed as “improved”. For the same compound, in data set [4], the “number of nighttime awakenings” value was “reduced” and the “sleep-onset latency (subjective)” value was “significantly reduced”. For the same compound, the “sleep latency, criterion 10 minutes of uninterrupted sleep” value in the data set on healthy male volunteers is “significant reduction”. In addition, in data set [5], the “efficacy in primary or secondary sleep disorders” value is “not effective”. Besides, in the data set with women, the “daytime cortisol levels in postmenopausal women (PMW)” value is reported as “marked increase” and the “serum cortisol levels in young women (EFW)” value is on record as “did not modify”. The “effect on jet lag versus placebo” value in the data set with jet lag is listed as “no beneficial physiological effect”. Moreover, the “asthma symptoms, use of relief medication and daily peak expiratory flow rate” value with women with asthma was “No significant difference”. Also, the “Sleep quality scores versus placebo” value in [6] is given as “significantly higher”. The “subjects who completely discontinued benzodiazepine use” value in data set [6] (period one, placebo four of 16) is 14 of 18. Also, in data set [7], the “effect on jet lag” value was “reduce or prevent jet lag”. Also, in the data set with healthy elderly subjects, the “California Verbal Learning Test-interference subtest scores” value is on record as “improved”, the reported morning restedness result is listed as “improved” and the “sleep latency after nocturnal awakening” value is on record as “improved”. Further, in the data set on patients with tinnitus, the “mean PSQI” value is “significantly decreased” and the “mean THI score” value was “decreased significantly”. In [8], the Lights-off time result is “did not change”, the “advance of sleep offset” value was 9 min, the “advance of sleep onset” value is 57 min and the “decrease of sleep latency” value is 17 min. In addition, in [8], the “total scores of the RAND-GHRI and FS-II compared to placebo” value is given as “improved significantly more”; the total sleep time entry is “did not change”. In [8] (dim light melatonin onset in saliva), the “advance of melatonin onset” value is 82 min. Further, the “standardized response mean for the RAND-GHRI” value in data set [8] (placebo 0.07) is on record as 0.69. Besides, in [8] (placebo 0.64), the “standardized response mean for the FS-II” value is given as 1.61. For the same compound, in data set [9], the “Quality and quantity of sleep” value is on record as “quickly increased in five of the six children”.
As to `CN1C(=O)CN=C(c2ccccc2F)c2cc([N+](=O)[O-])ccc21` [flunitrazepam], the “antagonism of the effects by flumazenil” value in the data set on sleep-disturbed rats (benzodiazepine receptor antagonist flumazenil) is listed as “antagonized”. Moreover, the “delta activity during non-REM sleep” value in the data set on sleep-disturbed rats (sleep-disturbed rats) is given as “significant decrease”. For the same compound, in the data set on sleep-disturbed rats (setting [10]), the “total non-REM sleep time” value is on record as “increase” and the total waking time result is reported as “decrease”. Also, the sleep latency result in the data set with sleep-disturbed rats (sleep-disturbed rats, kava-kava extract 300 mg/kg) is “significant shortening”.
